The values below come from patent publication US20220267260A1, “COMPOUNDS CONTAINING A SULFONIC GROUP AS KAT INHIBITORS” (Epizyme, Inc., priority 2016, published 2022).

Some results are limits rather than exact numbers.

A word on the IC50: it is the concentration that inhibits the measured activity by half. High values mean weaker potency in that assay, low ones greater potency in that assay.

Experiment [1] concerns the target T1, KAT5 (Homo sapiens, UniProt Q92993).
T1 construct: His-TEV tag (N, cleaved yes); made in house
The experiment is described as follows: KAT5 enzyme inhibition assay (SAMDI mass spectrometry). Type of experiment: biochemical. To be noted: His-TEV-FL KAT5-Flag enzyme construct.

Experiment [2] deals with T2, KAT6A (Homo sapiens, UniProt Q92794).
T2 construct: His-TEV tag (N, cleaved yes); made in house
T2 sequence (Q92794 with tags, fused parts or gaps): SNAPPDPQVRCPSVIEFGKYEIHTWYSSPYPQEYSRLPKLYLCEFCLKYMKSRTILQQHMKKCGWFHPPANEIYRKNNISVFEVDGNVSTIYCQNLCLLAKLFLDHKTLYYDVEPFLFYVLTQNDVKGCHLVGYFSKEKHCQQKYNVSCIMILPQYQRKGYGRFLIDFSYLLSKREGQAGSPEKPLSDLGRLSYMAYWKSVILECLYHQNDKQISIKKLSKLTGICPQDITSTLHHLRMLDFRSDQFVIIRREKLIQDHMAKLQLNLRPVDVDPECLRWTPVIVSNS
The experiment is described as follows: KAT6A enzyme inhibition assay (SAMDI mass spectrometry). Type of experiment: biochemical. To be noted: His-TEV-KAT6A 501-784 enzyme construct.

T1 sequence (Q92993 with tags, fused parts or gaps): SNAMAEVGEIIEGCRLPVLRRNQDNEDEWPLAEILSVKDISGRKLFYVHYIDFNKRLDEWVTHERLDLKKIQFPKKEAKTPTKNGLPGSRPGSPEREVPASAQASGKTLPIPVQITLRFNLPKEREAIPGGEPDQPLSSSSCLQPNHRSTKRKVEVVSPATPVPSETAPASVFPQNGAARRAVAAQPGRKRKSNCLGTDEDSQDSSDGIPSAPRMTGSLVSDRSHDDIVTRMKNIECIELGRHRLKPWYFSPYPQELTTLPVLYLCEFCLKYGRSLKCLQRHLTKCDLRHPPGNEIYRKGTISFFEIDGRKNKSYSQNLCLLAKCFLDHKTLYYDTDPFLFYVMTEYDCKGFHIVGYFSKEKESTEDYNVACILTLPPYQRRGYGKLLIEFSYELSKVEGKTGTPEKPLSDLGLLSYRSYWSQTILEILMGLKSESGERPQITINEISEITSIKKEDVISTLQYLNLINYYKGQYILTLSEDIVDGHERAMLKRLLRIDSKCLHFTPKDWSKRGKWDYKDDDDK

In the case of `O=C(NNS(=O)(=O)C1CCCCC1)c1c(F)ccc(-c2ccccc2)c1Cl` [Compound I-312], the IC50 in experiment [1] and in experiment [2] was over 100 µM throughout.

Regarding `Cc1cc(-c2ccccc2)cc(C(=O)NNS(=O)(=O)C2CC3CCC(C2)N3C(=O)OC(C)(C)C)c1F` (stereo not drawn) [Compound I-137], the IC50 in experiment [1] and in experiment [2] was 10 to 50 µM in each case.

In the case of `O=C(NCCO)c1cc(Cl)c(F)c(C(=O)NNS(=O)(=O)C2CCOCC2)c1` [Compound I-480], the IC50 in experiment [1] and in experiment [2] was over 100 µM each time.

For `Cc1ccc(-c2ccccc2)c(F)c1C(=O)NNS(=O)(=O)c1ccccc1` [Compound I-139], the IC50 in experiment [1] and in experiment [2] was over 100 µM throughout.

`O=S(=O)(NNc1n[nH]c2c(-c3ccccc3)cccc12)c1ccccc1` [Compound I-50]: the IC50 in experiment [1] is 50 to 100 µM; in experiment [2] it was over 100 µM.

Regarding `Cc1cc(-c2cccc(F)c2)cc(C(=O)NNS(=O)(=O)CC2CCCN(C(=O)C(C)C)C2)c1F` (stereo not drawn) [Compound I-292], the IC50 in experiment [1] and in experiment [2] was at most 10 µM in each case.

`O=C(NNS(=O)(=O)c1ccccc1)c1c[nH]c2ccccc12` [Compound I-158]: the IC50 in experiment [1] and in experiment [2] was over 100 µM in each case.

On to `O=C(NNS(=O)(=O)c1ccccc1)c1c(F)ccc(-c2ncc[nH]2)c1F` [Compound I-264], for which the IC50 in experiment [1] was over 100 µM; in experiment [2], 50 to 100 µM.

As for `Cc1cc(-c2ccccc2)cc(C(=O)NNS(=O)(=O)C2CN(CCO)C2)c1F` [Compound I-42], the IC50 in experiment [1] was 50 to 100 µM; in experiment [2] it was 10 to 50 µM.

Regarding `Cc1cc(-c2ccccc2)cc(C(=O)NNS(=O)(=O)CC2CCNC2)c1F` (stereo not drawn) [Compound I-320], the IC50 in experiment [1] and in experiment [2] was 10 to 50 µM in each case.

For `Cc1cc(-c2cccc(C(=O)OCc3ccccc3)c2)cc(C(=O)NNS(=O)(=O)C2CCOCC2)c1F` [Compound I-443], the IC50 in experiment [1] and in experiment [2] was at most 10 µM throughout.

For `O=C(NNS(=O)(=O)c1ccccc1)c1c(F)ccc(-c2cnc[nH]2)c1F` [Compound I-497], the IC50 was in the range of 50 to 100 µM in experiment [1] and 10 to 50 µM in experiment [2].

On to `Cn1cnc2cc(-c3ccccc3)c(F)c(C(=O)NNS(=O)(=O)C3CCCCC3)c21` [Compound I-402], for which the IC50 in experiment [1] and in experiment [2] was over 100 µM throughout.

For `COCCN1CCCC(CS(=O)(=O)NNC(=O)c2cc(-c3cccc(F)c3)cc(C)c2F)C1` (stereo not drawn) [Compound I-408], the figures for the IC50 in experiment [1] and in experiment [2] were at most 10 µM and 10 to 50 µM, respectively.

As to `Cc1cccc(-c2cc(Cl)c(F)c(C(=O)NNS(=O)(=O)CC3CCNC3)c2)c1` (stereo not drawn) [Compound I-517], the IC50 in experiment [1] and in experiment [2] was over 100 µM in each case.

Take `CCc1cc(Cl)c(F)c(C(=O)NNS(=O)(=O)CC2CCCCC2)c1` [Compound I-421]: the IC50 in experiment [1] is at most 10 µM; in experiment [2], 10 to 50 µM.

For `Cc1cc(-c2ccccc2)cc(C(=O)NNS(=O)(=O)c2cccc(C(=O)N(C)C)c2)c1F` [Compound I-255], the IC50 in experiment [1] and in experiment [2] was at most 10 µM throughout.

Take `CC(=O)N1CCCC(CS(=O)(=O)NNC(=O)c2cc(-c3cccc(F)c3)cc(C)c2F)C1` (stereo not drawn) [Compound I-330]: the IC50 in experiment [1] and in experiment [2] was at most 10 µM in each case.

Regarding `Cc1cc(-c2ccccc2)cc(C(=O)NNS(=O)(=O)C2CCN(Cc3ccccc3Cl)C2)c1F` (stereo not drawn) [Compound I-29], the IC50 in experiment [1] and in experiment [2] was at most 10 µM throughout.

Take `Cc1cc(-c2ccccc2)cc(C(=O)NNS(=O)(=O)CC2CCN(C)CC2)c1F` [Compound I-349]: the IC50 in experiment [1] and in experiment [2] was 10 to 50 µM each time.

`CNC(=O)c1ccc(S(=O)(=O)NNC(=O)c2cc(-c3ccccc3)cc(C)c2F)cc1` [Compound I-244]: the IC50 in experiment [1] is 10 to 50 µM; in experiment [2], at most 10 µM.

In the case of `Cc1cc(-c2ccccc2)cc(C(=O)NNS(=O)(=O)C2CCN(C)C2)c1F` (stereo not drawn) [Compound I-31], the IC50 in experiment [1] was 50 to 100 µM; in experiment [2], 10 to 50 µM.

In the case of `O=C(NNS(=O)(=O)C1CCOCC1)c1cc(Cn2cccn2)cc(Cl)c1F` [Compound I-464], the IC50 in experiment [1] and in experiment [2] was over 100 µM throughout.

Consider `O=C(NN[S+]([O-])c1ccccc1)c1ccccc1F` (stereo not drawn) [Compound I-133], for which the IC50 in experiment [1] and in experiment [2] was over 100 µM throughout.

Consider `Cc1cc(-c2ccccc2)cc(C(=O)NNS(=O)(=O)c2ccc(Cl)cc2)c1F` [Compound I-217], for which the half-inhibitory concentration (IC50) in experiment [1] and in experiment [2] was at most 10 µM in each case.

In the case of `O=C(NS(=O)(=O)c1ccccc1)c1c[nH]c2ccccc12` [Compound I-185], the IC50 in experiment [1] and in experiment [2] was over 100 µM each time.

Regarding `O=C(NNS(=O)(=O)c1ccccc1)c1c(F)ccc(-c2ccccc2)c1F` [Compound I-233], the IC50 in experiment [1] was 10 to 50 µM; in experiment [2], at most 10 µM.

For `O=C(NNS(=O)(=O)c1ccccc1)c1c(F)cccc1F` [Compound I-166], the IC50 in experiment [1] was over 100 µM; in experiment [2], 10 to 50 µM.

As to `O=C(NNS(=O)(=O)C1CCOCC1)c1cc(C(=O)N2CCOCC2)cc(Cl)c1F` [Compound I-439], the IC50 in experiment [1] and in experiment [2] was over 100 µM each time.

`Cc1cccc(S(=O)(=O)NNC(=O)c2cc(-c3ccccc3)ccc2F)c1` [Compound I-131]: the IC50 in experiment [1] was over 100 µM; in experiment [2], at most 10 µM.

In the case of `CC(=O)N1CCC(CS(=O)(=O)NNC(=O)c2cc(-c3ccccc3)cc(C)c2F)CC1` [Compound I-341], the IC50 in experiment [1] and in experiment [2] was at most 10 µM each time.

In the case of `Cc1cc(-c2ccccc2)cc(C(=O)NNS(=O)(=O)CC2CCN(C(=O)OC(C)(C)C)C2)c1F` (stereo not drawn) [Compound I-206], the IC50 in experiment [1] and in experiment [2] was at most 10 µM each time.

Take `Cc1cc(-c2cccc(F)c2Cl)cc(C(=O)NNS(=O)(=O)CC2CCCCC2)c1F` [Compound I-398]: the IC50 was 50 to 100 µM in experiment [1] and 10 to 50 µM in experiment [2].

Regarding `O=C(NNS(=O)(=O)CC1CCOCC1)c1cc(-c2ccccc2)cc(Cl)c1F` [Compound I-400], the IC50 in experiment [1] and in experiment [2] was at most 10 µM in each case.

For the compound `CNC(=O)CCNC(=O)c1cc(Cl)c(F)c(C(=O)NNS(=O)(=O)C2CCCCC2)c1` [Compound I-474], the IC50 in experiment [1] and in experiment [2] was over 100 µM each time.

As for `Cc1cc(F)c(-c2ccccc2)cc1C(=O)NNS(=O)(=O)c1ccccc1` [Compound I-123], the IC50 in experiment [1] and in experiment [2] was over 100 µM each time.

In the case of `Cn1cnc(-c2ccc(F)c(C(=O)NNS(=O)(=O)c3ccccc3)c2F)c1` [Compound I-259], the results for the concentration for half-maximal inhibition (IC50) in experiment [1] and in experiment [2] were 10 to 50 µM and at most 10 µM, respectively.

As to `CCS(=O)(=O)NNC(=O)c1c(F)ccc(-c2ccccc2)c1C` [Compound I-228], the IC50 in experiment [1] and in experiment [2] was over 100 µM throughout.

Regarding `Cc1cc(-c2ccccc2)cc(C(=O)NNS(=O)(=O)C2CN(Cc3cccc(Cl)c3)C2)c1F` [Compound I-28], the IC50 in experiment [1] and in experiment [2] was over 100 µM in each case.

In the case of `O=C(NNS(=O)(=O)CC1CCCCC1)c1cc(Cl)cc(Cl)c1F` [Compound I-411], the half-inhibitory concentration (IC50) is at most 10 µM in experiment [1] and 10 to 50 µM in experiment [2].

For `Cc1c(C(=O)NNS(=O)(=O)c2cccc(Cl)c2)cnn1-c1ccccc1` [Compound I-316], the IC50 in experiment [1] and in experiment [2] was over 100 µM in each case.

Consider `O=S(=O)(NNc1n[nH]c2c(F)cccc12)c1ccccc1` [Compound I-48], for which the IC50 in experiment [1] and in experiment [2] was over 100 µM throughout.

On to `Cc1cc(-c2ccccc2)cc(C(=O)NNS(=O)(=O)CC2CCCN(C)C2)c1F` (stereo not drawn) [Compound I-337], for which the IC50 in experiment [1] and in experiment [2] was 10 to 50 µM in each case.

As for `CC1CCCC(C)N1C(=O)NNS(=O)(=O)c1ccccc1` (stereo not drawn) [Compound I-15], the IC50 in experiment [1] and in experiment [2] was over 100 µM in each case.

As to `Cc1cc(-c2cccc(Cl)c2)cc(C(=O)NNS(=O)(=O)c2ccccc2)c1F` [Compound I-340], the IC50 in experiment [1] and in experiment [2] was at most 10 µM throughout.

In the case of `COc1ccc(Cn2cnc(-c3ccc(F)c(C(=O)NNS(=O)(=O)c4ccccc4)c3F)c2)cc1` [Compound I-222], the IC50 in experiment [1] was 50 to 100 µM; in experiment [2], at most 10 µM.

In the case of `Cn1cnc2c(C(=O)NNS(=O)(=O)C3CCCCC3)c(F)c(-c3ccccc3)cc21` [Compound I-468], the IC50 in experiment [1] and in experiment [2] was over 100 µM in each case.

Regarding `CCN(C)C(=O)N1CCC(CS(=O)(=O)NNC(=O)c2cc(-c3cccc(C)c3)cc(Cl)c2F)C1` (stereo not drawn) [Compound I-519], the 50% inhibitory concentration (IC50) in experiment [1] and in experiment [2] was at most 10 µM in each case.

In the case of `Cc1cc(-c2ccccc2)cc(C(=O)NNS(=O)(=O)C2CCN(C(=O)C(C)C)CC2)c1F` [Compound I-108], the IC50 in experiment [1] is at most 10 µM; in experiment [2], 10 to 50 µM.

In the case of `CC(=O)N1CC(CS(=O)(=O)NNC(=O)c2cc(-c3ccccc3)cc(C)c2F)C1` [Compound I-303], the IC50 was 10 to 50 µM in experiment [1] and at most 10 µM in experiment [2].

For `Cc1c(F)c(C(=O)NNS(=O)(=O)C2CCCCC2)nn1C` [Compound I-475], the IC50 in experiment [1] and in experiment [2] was over 100 µM in each case.

Consider `COCc1cc(Cl)c(F)c(C(=O)NNS(=O)(=O)CC2CCOCC2)c1` [Compound I-452], for which the IC50 in experiment [1] and in experiment [2] was at most 10 µM throughout.

As for `Cc1cc(-c2ccccc2)cc(C(=O)NNS(=O)(=O)c2cccc(C(=O)O)c2)c1F` [Compound I-256], the half-maximal inhibitory concentration (IC50) in experiment [1] is 50 to 100 µM; in experiment [2], at most 10 µM.

`CNC(=O)Cn1nc(C)c(F)c1C(=O)NNS(=O)(=O)C1CCCCC1` [Compound I-503]: the IC50 in experiment [1] and in experiment [2] was over 100 µM each time.

On to `O=C(NNS(=O)(=O)C1CCCCC1)c1cc(CO)cc(Cl)c1F` [Compound I-456], for which the half-maximal inhibitory concentration (IC50) in experiment [1] and in experiment [2] was over 100 µM in each case.

As for `Cc1cc(-c2cccc(OCCN(C)C)c2)cc(C(=O)NNS(=O)(=O)CC2CCCCC2)c1F` [Compound I-365], the IC50 is 50 to 100 µM in experiment [1] and over 100 µM in experiment [2].

For the compound `Cc1cc(-c2ccccc2)cc(C(=O)NNS(=O)(=O)C2CC3CCC(C2)N3)c1F` (stereo not drawn) [Compound I-184], the IC50 in experiment [1] and in experiment [2] was over 100 µM in each case.
